Experimental data as given in patent publication US4622430A (priority 1982, dated 1986).
Read-outs that look alike come from different tables or passages of the source.

Columns and labels:
[1] = system: reserpine-induced catalepsy; assay: Antagonism of reserpine-induced catalepsy in the mouse; format: in vivo, Male CD-1 mice; settings: 0.75 h, read-out: ED50 (dose causing a reduction of the catalepsy score to 50% of the control group score), oral, reserpine 5 mg/kg i.p. 4 h before, scored 45 min after compound
[2] = Irwin dose-range study/acute toxicity in the mouse; set-up: species or system Male CD-1 mice; settings: in vivo; for selectivity ratio: LD50 acute oral toxicity / ED50 reserpine catalepsy, read-out: Therapeutic index (LD50/ED50); for LD50 at 168 h: oral, 7 days observation, method of Horn
From the text: Irwin Dose-Range Study/Acute Toxicity in the Mouse
The animals were also observed daily for seven days post-dose and any mortalities noted. LD50 values were estimated using the method of Horn (Biometrics, 12, 311 (1956)).

[3] = system: oxotremorine-induced tremor and salivation; assay: Anti-oxotremorine test in the mouse; settings: 0-3 scale; for Mean tremor score (± s.e.): vehicle 2,6-2,9; for Mean salivation score (± s.e.): vehicle 2,7-2,9
[4] = system: CVS strain of rabies virus; format: in vivo, in Swiss-Webster mice
[5] = 10 mg/kg oral, 10 min post-oxotremorine
[6] = 100 mg/kg oral, 30 min post-oxotremorine

SMILES: NC1C2C3CC4C5CC(C1C53)C42 (stereo not shown) [Compound 11, 4-amino-(D3)-trishomocubane]
- ED50 [1]: 139 mg/kg
- selectivity ratio [2]: 7.2
- LD50 at 168 h [2]: 1000 mg/kg

SMILES: CC12C3CC4C5CC(C(C53)C1NCc1ccccc1)C42 (stereo not shown) [Compound 16, 4-Benzylamino-3-methyl-(D3)-trishomocubane]
- ED50 [1]: 69.1 mg/kg
- Mean tremor score (± s.e.) [3, 5]: 1,4 ± 0,2
- Mean salivation score (± s.e.) [3, 5]: 1,3 ± 0,2
- selectivity ratio [2]: > 14.5
- LD50 at 168 h [2]: > 1000 mg/kg

SMILES: CNC1C2C3CC4C5CC(C42)C1(C)C53 (stereo not shown) [Compound 23, 3-methyl-4-methylamino-(D3)-trishomocubane]
- Mean salivation score (± s.e.) ([3]; 30 mg/kg oral, 30 min post-oxotremorine): 0,8 ± 0,2
- Mean tremor score (± s.e.) ([3]; 100 mg/kg oral, 10 min post-oxotremorine): 1,2 ± 0,2

SMILES: CC12C3CC4C5CC(C(C53)C1NCCc1ccccc1)C42 (stereo not drawn) [Compound 17, 4-(β-phenyl)ethylamino-3-methyl-(D3)-trishomocubane]
- Mean tremor score (± s.e.) [3, 6]: 1,4 ± 0,2
- Mean salivation score (± s.e.) [3, 6]: 1,0 ± 0,3

SMILES: NC1C2C3CC4C5CC(C42)C1(c1ccccc1)C53 (stereo not shown) [Compound 19, 4-amino-3-phenyl-(D3)-trishomocubane]
- ED50 [1]: 32.2 mg/kg
- Survival parameter (sum of days survived by six mice, up to 14 days each) ([4]; i.p. 10 mg/kg, 24 hours post inoculation, control 53 (compound 14), 59 (compound 19)): 66
- Survival parameter (sum of days survived by six mice, up to 14 days each) ([4]; i.p. 10 mg/kg, 96 hours post inoculation, control 52 (compound 14), 61 (compound 19)): 77
- Survival parameter (sum of days survived by six mice, up to 14 days each) ([4]; i.p. 21,5 mg/kg, 24 hours post inoculation, control 53 (compound 14), 59 (compound 19)): 65
- Survival parameter (sum of days survived by six mice, up to 14 days each) ([4]; i.p. 21,5 mg/kg, 96 hours post inoculation, control 52 (compound 14), 61 (compound 19)): 71
- Survival parameter (sum of days survived by six mice, up to 14 days each) ([4]; i.p. 46,4 mg/kg, 24 hours post inoculation, control 53 (compound 14), 59 (compound 19)): 66
- Survival parameter (sum of days survived by six mice, up to 14 days each) ([4]; i.p. 46,4 mg/kg, 96 hours post inoculation, control 52 (compound 14), 61 (compound 19)): 68
- Mean salivation score (± s.e.) ([3]; 30 mg/kg oral, 20 min post-oxotremorine): 1,0 ± 0,2
- selectivity ratio [2]: 25.6
- LD50 at 168 h [2]: 825 mg/kg
